# Data from patent publication US6858591B2, “Antibiotic AA 896 analogs” (Wyeth Holdings Corporation, priority 2001, dated 2005).
# Where two headings read alike, the source gives them in different places.
# Assays:
# Test in all cases: In vitro MIC, broth dilution
# Type in all cases: cell-based
# E. coli GC 2203 = conditions: Escherichia coli, GC2203
# E. cloacae GC 3783 = conditions: Enterobacter cloacae, GC3783
# S. marcescens GC 4077 = conditions: Serratia marcescens, GC4077
# E. faecalis GC 842 = conditions: Enterococcus faecalis, GC842
# Procedure, shortened: (§1)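 Organisms were inoculated at 5×10^5 CFU/ml into Mueller-Hinton II containing antibiotic at 64-0.06 μg/ml, then incubated 18 hours at 35° C in ambient air. The MIC was the lowest concentration that inhibited growth.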
# S. aureus GC 1131 = conditions: Staphylococcus aureus, GC1131
# Procedure, shortened: as §1
# S. aureus GC 2216 = conditions: Staphylococcus aureus, GC2216
# Procedure, shortened: as §1
# CNS GC 4538 = test system: CNS GC 4538
# Procedure, shortened: as §1
# CNS GC 4537 = test system: CNS GC 4537
# Procedure, shortened: as §1
# CNS GC 4547 = test system: CNS GC 4547
# Procedure, shortened: as §1
# E. faecalis GC 2242 = conditions: Enterococcus faecalis, GC2242
# Procedure, shortened: as §1
# E. faecalis GC 4555 = conditions: Enterococcus faecalis, GC4555
# Procedure, shortened: as §1
# S. aureus GC 4536 = conditions: Staphylococcus aureus, GC4536
# Procedure, shortened: as §1
# P. aeruginosa GC 4532 = conditions: Pseudomonas aeruginosa, GC4532
# E. coli GC 4559 = conditions: Escherichia coli, GC4559
# M. morganii GC 4531 = conditions: Morganella morganii, GC4531
# E. coli GC 4560 = conditions: Escherichia coli, GC4560
# P. aeruginosa GC 2214 = conditions: Pseudomonas aeruginosa, GC2214
# E. coli GC 3226 = conditions: Escherichia coli, GC3226
# K. pneumoniae GC 4534 = conditions: Klebsiella pneumoniae, GC4534
# C. albicans GC 3066 = conditions: Candida albicans, GC3066
# [1] = E. cloacae GC 3783, read-out: MIC
# [2] = S. marcescens GC 4077, read-out: MIC
# [3] = E. faecalis GC 842, read-out: MIC
# [4] = S. aureus GC 1131, read-out: MIC
# [5] = S. aureus GC 2216, read-out: MIC
# [6] = E. faecalis GC 2242, read-out: MIC
# [7] = E. faecalis GC 4555, read-out: MIC
# [8] = S. aureus GC 4536, read-out: MIC
# [9] = P. aeruginosa GC 4532, read-out: MIC
# [10] = M. morganii GC 4531, read-out: MIC
# [11] = P. aeruginosa GC 2214, read-out: MIC
# [12] = K. pneumoniae GC 4534, read-out: MIC
# [13] = C. albicans GC 3066, read-out: MIC
Structure (SMILES),"MIC (E. coli GC 2203; E. coli GC 2203, read-out: MIC)",MIC (E. cloacae GC 3783; [1]),MIC (S. marcescens GC 4077; [2]),MIC (E. faecalis GC 842; [3]),MIC (S. aureus GC 1131; [4]),MIC (S. aureus GC 2216; [5]),MIC (E. faecalis GC 2242; [6]),MIC (E. faecalis GC 4555; [7]),MIC (S. aureus GC 4536; [8]),MIC (P. aeruginosa GC 4532; [9]),"MIC (E. coli GC 4559; E. coli GC 4559, read-out: MIC)",MIC (M. morganii GC 4531; [10]),"MIC (E. coli GC 4560; E. coli GC 4560, read-out: MIC)",MIC (P. aeruginosa GC 2214; [11]),"MIC (E. coli GC 3226; E. coli GC 3226, read-out: MIC)",MIC (K. pneumoniae GC 4534; [12]),MIC (C. albicans GC 3066; [13]),"MIC (CNS GC 4538; CNS GC 4538, read-out: MIC)","MIC (CNS GC 4537; CNS GC 4537, read-out: MIC)","MIC (CNS GC 4547; CNS GC 4547, read-out: MIC)",other results
"COc1ccc(Cn2c(=O)ccn([C@@H]3OC([C@H](O)[C@H](NCCCNC(=O)[C@@H](NC(=O)[C@H](CCCNC(=N)N[N+](=O)[O-])NC(=O)N[C@H](C(=O)OCc4ccccc4)C(C)C)C(C)O)C(=O)O)[C@@H](O)[C@H]3O)c2=O)cc1 (stereo partly drawn) [Example 47, (4S,8S,11S,18S)-18-[(R)-[(3S,4R,5R)-3,4-Dihydroxy-5-(3-(4-methoxybenzyl)-2,4-dioxo-3,4-dihydro-1(2H)-pyrimidinyl)tetrahydro-2-furanyl](hydroxy)methyl]-8-(3-{[(2,2-dioxido-2lambda˜1˜-diazanyl)(imino)methyl]amino}propyl)-11-[(1S)-1-hydroxyethyl]-4-isopropyl-3,6,9,12-tetraoxo-1-phenyl-2-oxa-5,7,10,13,17-pentaazanonadecan-19-oic acid]",> 128 µg/mL,> 128 µg/mL,128 µg/mL,128 µg/mL,> 128 µg/mL,> 128 µg/mL,64 µg/mL,128 µg/mL,> 128 µg/mL,128 µg/mL,> 128 µg/mL,128 µg/mL,128 µg/mL,> 128 µg/mL,> 128 µg/mL,> 128 µg/mL,128 µg/mL,–,–,–,MIC (CNS GC 4538): > 128 µg/mL; MIC (CNS GC 4537): > 128 µg/mL; MIC (CNS GC 4547): > 128 µg/mL
"COc1ccc(Cn2c(=O)ccn([C@@H]3OC([C@H](O)[C@H](NCCCNC(=O)[C@@H](N)[C@H](C)O)C(=O)OC(C)(C)C)[C@@H](O)[C@H]3O)c2=O)cc1 (stereo partly drawn) [Example 45, tert-Butyl (2S,3R)-2-[(3-{[(2S,3S)-2-amino-3-hydroxybutanoyl]amino}propyl)amino]-3-[(3S,4R,5R)-3,4-dihydroxy-5-(3-(4-methoxybenzyl)-2,4-dioxo-3,4-dihydro-1(2H)-pyrimidinyl)-tetrahydro-2-furanyl]-3-hydroxypropanoate]",> 128 µg/mL,> 128 µg/mL,> 128 µg/mL,> 128 µg/mL,> 128 µg/mL,> 128 µg/mL,128 µg/mL,> 128 µg/mL,> 128 µg/mL,128 µg/mL,> 128 µg/mL,128 µg/mL,> 128 µg/mL,128 µg/mL,> 128 µg/mL,> 128 µg/mL,128 µg/mL,> 128 µg/mL,> 128 µg/mL,> 128 µg/mL,–
"COc1ccc(Cn2c(=O)ccn([C@@H]3OC([C@H](O)[C@H](NCCCNC(=O)[C@H](CC(C)C)NC(=O)OCc4ccccc4)C(=O)OC(C)(C)C)[C@@H](O[Si](C)(C)C(C)(C)C)[C@H]3O[Si](C)(C)C(C)(C)C)c2=O)cc1 (stereo partly drawn) [Example 4, tert-Butyl (5S,12S)-12-[(R)-[(3R,4R,5R)-3,4-bis{[tert-butyl(dimethyl)silyl]oxy}-5-(3-(4-methoxybenzyl)-2,4-dioxo-3,4-dihydro-1(2H)-pyrimidinyl)tetrahydro-2-furanyl](hydroxy)methyl]-5-isobutyl-3,6-dioxo-1-phenyl-2-oxa-4,7,11-triazatridecan-13-oate]",> 128 µg/mL,> 128 µg/mL,> 128 µg/mL,> 128 µg/mL,> 128 µg/mL,> 128 µg/mL,128 µg/mL,> 128 µg/mL,> 128 µg/mL,> 128 µg/mL,> 128 µg/mL,> 128 µg/mL,> 128 µg/mL,128 µg/mL,> 128 µg/mL,> 128 µg/mL,> 128 µg/mL,> 128 µg/mL,> 128 µg/mL,> 128 µg/mL,–
"COc1ccc(Cn2c(=O)ccn([C@@H]3OC([C@H](O)[C@H](NCCCNC(=O)[C@@H](CC(C)C)NC(=O)OCc4ccccc4)C(=O)OC(C)(C)C)[C@@H](O[Si](C)(C)C(C)(C)C)[C@H]3O[Si](C)(C)C(C)(C)C)c2=O)cc1 (stereo partly drawn) [Example 56, tert-Butyl (5R,12S)-12-[(R)-[(3R,4R,5R)-3,4-bis{[tert-butyl(dimethyl)silyl]oxy}-5-(3-(4-methoxybenzyl)-2,4-dioxo-3,4-dihydro-1(2H)-pyrimidinyl)tetrahydro-2-furanyl](hydroxy)methyl]-5-isobutyl-3,6-dioxo-1-phenyl-2-oxa-4,7,11-triazatridecan-13-oate]",> 128 µg/mL,> 128 µg/mL,> 128 µg/mL,> 128 µg/mL,> 128 µg/mL,> 128 µg/mL,128 µg/mL,> 128 µg/mL,> 128 µg/mL,128 µg/mL,> 128 µg/mL,128 µg/mL,> 128 µg/mL,128 µg/mL,> 128 µg/mL,> 128 µg/mL,> 128 µg/mL,> 128 µg/mL,> 128 µg/mL,> 128 µg/mL,–
"CC(C)C[C@H](NC(=O)OCc1ccccc1)C(=O)NCCCN[C@H](C(=O)O)[C@@H](O)C1O[C@@H](n2ccc(=O)[nH]c2=O)[C@H](O)[C@@H]1O (stereo partly drawn) [Example 55, (5S,12S)-12-[(R)-[(3S,4R,5R)-5-(2,4-Dioxo-3,4-dihydro-1(2H)-pyrimidinyl)-3,4-dihydroxy-tetrahydro-2-furanyl](hydroxy)methyl]-5-isobutyl-3,6-dioxo-1-phenyl-2-oxa-4,7,11-triazatridecan-13-oic acid]",128 µg/mL,128 µg/mL,128 µg/mL,128 µg/mL,> 128 µg/mL,> 128 µg/mL,128 µg/mL,128 µg/mL,> 128 µg/mL,128 µg/mL,> 128 µg/mL,128 µg/mL,128 µg/mL,128 µg/mL,128 µg/mL,128 µg/mL,128 µg/mL,> 128 µg/mL,> 128 µg/mL,> 128 µg/mL,–
"COc1ccc(Cn2c(=O)ccn([C@@H]3OC([C@H](O)[C@H](NCCCNC(=O)[C@@H](NC(=O)OCc4ccccc4)[C@H](C)O)C(=O)OC(C)(C)C)[C@@H](O[Si](C)(C)C(C)(C)C)[C@H]3O[Si](C)(C)C(C)(C)C)c2=O)cc1 (stereo partly drawn) [Example 10, tert-Butyl (5S,12S)-12-[(R)-[(3R,4R,5R)-3,4-bis{[tert-butyl(dimethyl)silyl]oxy}-5-(3-(4-methoxybenzyl)-2,4-dioxo-3,4-dihydro-1(2H)-pyrimidinyl)tetrahydro-2-furanyl](hydroxy)methyl]-5-[(1S)-1-hydroxyethyl]-3,6-dioxo-1-phenyl-2-oxa-4,7,11-triazatridecan-13-oate]",–,–,–,–,–,–,–,–,–,–,–,–,–,–,–,–,–,–,–,–,MIC (E. coli GC 2203): > 128 µg/mL; MIC (E. cloacae GC 3783): > 128 µg/mL; MIC (S. marcescens GC 4077): > 128 µg/mL; MIC (E. faecalis GC 842): > 128 µg/mL; MIC (S. aureus GC 1131): > 128 µg/mL; MIC (S. aureus GC 2216): > 128 µg/mL; MIC (CNS GC 4538): > 128 µg/mL; MIC (CNS GC 4537): > 128 µg/mL; MIC (CNS GC 4547): > 128 µg/mL; MIC (E. faecalis GC 2242): 128 µg/mL; MIC (E. faecalis GC 4555): > 128 µg/mL; MIC (S. aureus GC 4536): > 128 µg/mL; MIC (P. aeruginosa GC 4532): > 128 µg/mL; MIC (E. coli GC 4559): > 128 µg/mL; MIC (M. morganii GC 4531): > 128 µg/mL; MIC (E. coli GC 4560): > 128 µg/mL; MIC (P. aeruginosa GC 2214): > 128 µg/mL; MIC (E. coli GC 3226): > 128 µg/mL; MIC (K. pneumoniae GC 4534): > 128 µg/mL; MIC (C. albicans GC 3066): 128 µg/mL
